What was measured:
Format in all cases: cell-based
[1] = tested on: HEK-293T; experiment: Cytotoxicity against HEK293T cells transfected with human IDO1 or mouse IDO2 assessed as apoptotic cells at 200 uM after 7 hrs or 24 hrs by DAPI staining based cytometric analysis relative to control
[2] = biological target: T1, Indoleamine 2,3-dioxygenase 1 (Homo sapiens, UniProt P14902); experiment: Inhibition of human IDO1 transfected in HEK293T cells assessed as kynurenine formation using L-Trp as substrate at 200 uM after 7 hrs
Target sequence in this assay (P14902 whole entry, looked up): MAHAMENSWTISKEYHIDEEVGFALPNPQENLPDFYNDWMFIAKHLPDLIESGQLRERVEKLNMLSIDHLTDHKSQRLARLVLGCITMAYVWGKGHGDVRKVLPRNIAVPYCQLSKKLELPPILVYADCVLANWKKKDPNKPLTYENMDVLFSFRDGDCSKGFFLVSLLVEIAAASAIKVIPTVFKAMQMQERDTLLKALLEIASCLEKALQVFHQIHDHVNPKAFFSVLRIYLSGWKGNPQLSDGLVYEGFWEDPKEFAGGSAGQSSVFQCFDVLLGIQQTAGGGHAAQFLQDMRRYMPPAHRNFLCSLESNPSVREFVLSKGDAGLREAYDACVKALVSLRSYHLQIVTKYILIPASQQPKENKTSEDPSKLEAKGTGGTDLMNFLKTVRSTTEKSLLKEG

[3] = biological target: T2, Indoleamine 2,3-dioxygenase 2 (Mus musculus) (UniProt Q8R0V5); experiment: Inhibition of mouse IDO2 transfected in HEK293T cells assessed as kynurenine formation using L-Trp as substrate at 200 uM after 24 hrs
T2 sequence (whole entry): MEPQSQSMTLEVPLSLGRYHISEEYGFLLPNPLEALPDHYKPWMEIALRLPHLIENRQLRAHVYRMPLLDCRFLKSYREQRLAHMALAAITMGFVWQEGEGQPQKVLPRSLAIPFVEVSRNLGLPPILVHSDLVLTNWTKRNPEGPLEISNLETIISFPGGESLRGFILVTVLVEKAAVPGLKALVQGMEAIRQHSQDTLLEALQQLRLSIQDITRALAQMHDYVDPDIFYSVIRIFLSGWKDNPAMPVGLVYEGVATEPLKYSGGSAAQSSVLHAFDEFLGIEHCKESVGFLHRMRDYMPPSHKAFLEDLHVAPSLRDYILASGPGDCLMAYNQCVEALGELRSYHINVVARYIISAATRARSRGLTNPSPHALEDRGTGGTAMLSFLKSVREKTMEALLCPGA

[4] = biological target: T1, Indoleamine 2,3-dioxygenase 1; experiment: Inhibition of human IDO1 transfected in HEK293T cells assessed as kynurenine formation using L-Trp as substrate after 7 hrs
Target sequence in this assay (P14902 whole entry): as the sequence (P14902 whole entry, looked up) above

[5] = biological target: T3, Indoleamine 2,3-dioxygenase 2 (Mus musculus, UniProt Q8R0V5); experiment: Inhibition of mouse IDO2 transfected in HEK293T cells assessed as kynurenine formation using L-Trp as substrate after 24 hrs
T3 sequence (Q8R0V5 whole entry): T2 sequence (whole entry)

[6] = Selectivity ratio of IC50 for human IDO1 to IC50 for mouse IDO2 transfected in HEK293T cells

SMILES | Activity [1] [%] | inhibition [2] [%] | inhibition [3] [%] | IC50 [4] [µM] | IC50 [5] [µM] | Ratio IC50 [6]
c1ccc(CCc2ccccc2-c2c[nH]nn2)cc1 | 3.7 | 58 | 90 | 100 | 51 | 2
Clc1ccccc1-c1c[nH]nn1 | 0.2 | – | – | – | – | –
c1ccc(Cc2ccccc2-c2c[nH]nn2)cc1 | 0 | 84 | 80 | 105 | 70 | 1.5
Clc1ccc(-c2c[nH]nn2)cc1 | – | 9 | 27 | – | – | –
c1ccc(-c2c[nH]nn2)c(CCC2CCCCC2)c1 | 72.3 | 77 | 95 | – | – | –
c1ccc(-c2c[nH]nn2)c(CCC2CCCC2)c1 | 35.1 | 74 | 89 | – | – | –
Clc1cccc(-c2c[nH]nn2)c1CCC1CCCC1 | 21.5 | 71 | 90 | – | – | –
Clc1cccc(-c2c[nH]nn2)c1/C=C/C1CCCCC1 | 5.4 | 56 | 65 | 110 | 110 | 1
Clc1cccc(-c2c[nH]nn2)c1CCc1ccccc1 | 70.8 | 76 | 94 | – | – | –
OC(Cc1ccccc1-c1c[nH]nn1)c1ccccc1 (configuration not stated) | 0 | 28 | 47 | – | – | –
c1ccc(-c2cnn[nH]2)cc1 | 5.3 | 93 | 1 | – | – | –
Clc1ccccc1-c1cnn[nH]1 | – | 83 | 4 | – | – | –
Clc1cccc(-c2c[nH]nn2)c1 | 0 | 95 | 2 | – | – | –
Oc1ccc(Cl)cc1-c1c[nH]nn1 | 0 | 98 | 43 | – | 120 | –
Clc1cccc(-c2c[nH]nn2)c1/C=C/c1ccccc1 | 57.9 | 32 | 97 | – | – | –
Oc1ccccc1-c1c[nH]nn1 | 0.2 | 96 | 14 | – | – | –
Clc1ccc(CCc2ccccc2)c(-c2c[nH]nn2)c1 | 51.6 | 70 | 97 | – | – | –

From ChEMBL document CHEMBL4425176, “1,2,3-Triazoles as inhibitors of indoleamine 2,3-dioxygenase 2 (IDO2)” (Bioorg Med Chem Lett, 2016)
